Series [1] has as its system Mouse Liver. The note with it: chronic study, mouse liver; ref ToxRefDB; cited from earlier work.
The subject of series [2] is CYP3A4. In words: CLZD_CYP3A4: Change in expression of CYP3A4 (primary human hepatocytes). It is filed as cell-based. Particulars: 24 hr. Summed up:
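Chemicals are tested in human hepatocyte primary cultures over 0.004-40 µM (5 concentrations) for 6, 24 or 48 hr, and concentration- and time-dependent transcript changes are read by quantitative nuclease protection assay.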

The target of series [3] is T1, PPARg (PPARG) (Homo sapiens, UniProt P37231).
T1 sequence (P37231 1-505): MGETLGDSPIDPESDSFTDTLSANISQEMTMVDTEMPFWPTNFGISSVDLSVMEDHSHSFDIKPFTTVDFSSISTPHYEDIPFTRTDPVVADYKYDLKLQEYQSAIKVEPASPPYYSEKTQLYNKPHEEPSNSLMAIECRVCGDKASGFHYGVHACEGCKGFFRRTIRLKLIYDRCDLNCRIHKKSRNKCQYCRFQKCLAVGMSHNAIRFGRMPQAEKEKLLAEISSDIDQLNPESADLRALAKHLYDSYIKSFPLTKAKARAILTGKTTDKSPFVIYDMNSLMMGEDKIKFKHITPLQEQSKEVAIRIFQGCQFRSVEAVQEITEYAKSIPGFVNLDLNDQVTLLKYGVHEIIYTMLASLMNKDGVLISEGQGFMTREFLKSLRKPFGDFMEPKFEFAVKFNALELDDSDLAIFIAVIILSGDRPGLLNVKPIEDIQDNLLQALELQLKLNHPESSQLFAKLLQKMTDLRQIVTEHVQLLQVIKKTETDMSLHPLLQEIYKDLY
Kind of series: NCGC_PPARg_Agonist: GAL4 BLAM Reporter gene assay: PPARg. Format: cell-based. Also on record: expressed in transfected cells; host or cells: HEK293. Particulars: agonist mode. The method, then: These assays measure binding constants and enzyme inhibition values for nuclear receptors. The targets include [drawing 67] , [drawing 68] , [drawing 69] , [drawing 70] , [drawing 71] , [drawing 72] , [drawing 73] , [drawing 74] , [drawing 75] and [drawing 76] . Each of the nuclear receptor targets was measured in agonist mode. Assays were run at the NIH Chemical Genomics Center (Rockville, MD).
Cell-based HTS Assays: These assays measuring binding constants and enzyme inhibition values for nuclear receptors. The targets include AR, ER, FXR, LXR, PPARα, PPARδ, PPARγ, RXRα, RXRβ and PXR. Each of the nuclear receptor targets was measured in both agonist and antagonist mode, but the antagonist data is still undergoing analysis due to possible interference between cytotoxicity and assay activity, so antagonist mode data were not used in the present analysis. Assays were run at the NIH Chemical Genomics Center (Rockville, MD) as part of the Tox21 collaboration. […] The R^2 was required to be ≥0.5. Values where only the highest concentration exceeded 50% activity were excluded to eliminate weak or false positives. Detailed description of the methods, data and analysis methods for this dataset will be presented in a separate publication.
(In general: In a reporter assay the amount or activity of a reporter protein is the signal.)

For series [4], the system named is Rat Liver. The note with it: chronic study, rat liver; ref ToxRefDB; cited from earlier work.
For series [5], the system named is Mouse Liver. The note with it: chronic study, mouse liver; ref ToxRefDB; cited from earlier work. The source holds these as a separate data set.
The test system of series [6] is Rat Liver. The note with it: chronic study, rat liver; ref ToxRefDB; cited from earlier work. The source holds these as a separate data set.
The subject of series [7] is Rat Liver. Particulars: chronic study, rat liver; ref ToxRefDB; cited from earlier work. This is another data set of the same source.
The subject of series [8] is Mouse Liver. The note with it: chronic study, mouse liver; ref ToxRefDB; cited from earlier work. This is another data set of the same source.
Series [9] has as its target T2, PXR (NR1I2) (Homo sapiens, UniProt O75469).
T2 sequence (O75469 1-434): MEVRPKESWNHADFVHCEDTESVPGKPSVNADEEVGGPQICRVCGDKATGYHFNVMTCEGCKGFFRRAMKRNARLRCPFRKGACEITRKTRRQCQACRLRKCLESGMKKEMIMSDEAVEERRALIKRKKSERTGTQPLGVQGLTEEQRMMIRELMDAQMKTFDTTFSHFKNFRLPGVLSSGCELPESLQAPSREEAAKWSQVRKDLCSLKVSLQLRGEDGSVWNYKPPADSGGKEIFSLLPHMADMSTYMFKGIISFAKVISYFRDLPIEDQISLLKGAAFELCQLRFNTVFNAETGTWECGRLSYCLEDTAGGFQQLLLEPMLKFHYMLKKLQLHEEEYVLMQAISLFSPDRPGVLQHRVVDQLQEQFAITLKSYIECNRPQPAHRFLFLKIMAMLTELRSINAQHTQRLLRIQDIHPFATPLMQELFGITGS
In words: NVS_NR_hPXR: Human PXR Fluormone PXR (SXR) green (cell-free HTS). Format: binding. The essentials:
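Cell-free biochemical binding assays; chemicals first screened at a single concentration of 25 […] M in duplicate wells. Signals normalised to same-plate solvent controls as percent of neutral control, and AC50 values came from Hill-equation fits of concentration-response curves.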

For series [10], the target named is T3, PPARG (peroxisome proliferator-activated receptor gamma) (Homo sapiens, UniProt P37231).
T3 construct: expressed in transfected cells; host or cells: HepG2
T3 sequence (P37231 1-505): T1 sequence (P37231 1-505)
In words: ATG_PPARg_TRANS: Factorial reporter gene assay (HepG2). It is filed as cell-based. Particulars: HepG2 reporter. The essentials:
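HepG2 cells were transfected with a multiple reporter transcription unit (MRTU) library of 48 transcription factor binding sites for the cis-acting PXRE assay. The ERRg, FXR and PPARg assays used a trans mammalian one-hybrid system with a further 25-unit nuclear receptor MRTU library. Chemicals were tested at seven concentrations, from the MTC downward in three-fold steps.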

The target of series [11] is T4, PXR Human (NR1I2) (Homo sapiens, UniProt O75469).
T4 sequence (O75469 146-434 limits assumed): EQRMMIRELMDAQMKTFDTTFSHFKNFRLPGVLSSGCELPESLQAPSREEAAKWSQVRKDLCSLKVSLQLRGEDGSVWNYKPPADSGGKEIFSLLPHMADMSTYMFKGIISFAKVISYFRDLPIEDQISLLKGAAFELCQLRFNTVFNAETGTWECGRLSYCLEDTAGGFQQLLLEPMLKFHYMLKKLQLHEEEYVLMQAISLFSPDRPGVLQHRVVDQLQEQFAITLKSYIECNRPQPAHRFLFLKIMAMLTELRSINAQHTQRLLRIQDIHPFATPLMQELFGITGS
In words: NCGC_PXR_Agonist_human: GAL4 BLAM Reporter gene assay: PXR Human. Format: cell-based. Particulars: agonist mode. Summed up: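 Tox21 cell-based screens at NCGC using GAL4-fused receptor beta-lactamase reporters. Responses active only at the top concentration (above 50%) were discarded, and fits needed R^2 of at least 0.5.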

Each structure is given as a SMILES string.

Take `CCC(C)(C)C(=O)OC1=C(c2cc(Cl)cc(Cl)c2)C(=O)OC12CCCCC2` [r285]: in series [1], the CHR_Mouse_Liver_2_PreneoplasticLesion is 6. The molecule further yielded a CLZD_CYP3A4_24 in [2] of 6.36. For the same molecule, in series [3], the NCGC_PPARg_Agonist turned out to be 5.556. The CHR_Rat_Liver_3_NeoplasticLesion in series [4] is given as 0. Also, the CHR_Mouse_Liver_1_AnyLesion in series [5] is given as 6. Further, the CHR_Rat_Liver_1_AnyLesion in [6] was 6. In [7], the CHR_Rat_Liver_2_PreneoplasticLesion is given as 6. Also, in series [8], the CHR_Mouse_Liver_3_NeoplasticLesion is reported as 6. The NVS_NR_hPXR in series [9] was 6.367. Also, the ATG_PPARg_TRANS in series [10] was found to be 5.444.
Molecule `N#CSCSc1nc2ccccc2s1` [r289] returned an NCGC_PPARg_Agonist in series [3] of 4.706. Moreover, in [11], the NCGC_PXR_Agonist_human turned out to be 4.409. This molecule registered an NVS_NR_hPXR in [9] of 6.169.

Values taken from paper PMC3038857, “Using Nuclear Receptor Activity to Stratify Hepatocarcinogens” (PLoS ONE, 2011).
